Laboratory results from patent US6903052B2, “Nematicidal compositions and methods” (Divergence, Inc., priority 2002, dated 2005).

Experiments:
M. incognita [1] = experiment: Nematicidal activity of fatty acid methyl ester emulsions, spectrum (Example 8); type: cell-based, Meloidogyne incognita; settings: M. incognita 2nd stage juveniles, scored at 48 hours
Protocol: (§1) Briefly, the indicated fatty acid emulsions were added and rapidly mixed by swirling. Nematode viability was scored by visual observation and motility assays 24 hours following addition of emulsions (48 hours for plant parasitic nematodes Meloidogyne and Heterodera species). The fatty acid emulsions tested were methyl esters of nonanoic (pelargonic) acid, ricinelaidic acid, ricinoleic acid, vernolic acid, linoleic acid, and oleic acid. […] Results shown are mean % values obtained from multiple independent experiments
(§2) The Caenorhabiditis elegans were mixed stage populations. Similar effects seen on several other free-living nematode species. The Parastrongyloides trichosuri (parasite of Australian bushtail possum) were dauer-like infective 3rd stage larva. Similar effects are also seen against free-living stages. The Meloidogyne incognita and Meloidogyne javanica (root knot nematode) were 2nd stage juveniles (dauer-like infective stage). The Heterodera glycines (soybean cyst nematode) were 2nd stage juveniles (dauer-like infective stage). Finally, the Pratylenchus scribneri (corn lesion nematode) were mixed stage populations.

P. scribneri = experiment: as above; type: cell-based, Pratylenchus scribneri; settings: P. scribneri mixed stage
Protocol: as §1, §2

M. incognita [2] = experiment: Nematicidal activity of fatty acid methyl ester emulsions against root knot nematode J2 larvae (Example 6); type: cell-based, Meloidogyne incognita; settings: 0.1% emulsion; 48 hours incubation, counted about 24 hours after transfer to plates
Protocol: (§3) Fatty acid methyl ester emulsions were prepared following the teachings of Kim et al (U.S. Pat. No. 5,698,592). Briefly, 1 ml 1% stock solution emulsions were prepared by mixing 10 μl of fatty acid methyl ester with 20 μl of the surfactant Igepal CO 630 in a 1.5 ml eppendorf tube. After careful mixing of fatty acid and Igepal CO 630, 850 μl of ddH20 was added and mixed by gentle pipetting until a homogeneous solution was obtained. Finally, 120 μl of pure isopropanol was added and mixed by gentle pipetting. This stock solution was then used to produce various fatty acid methyl ester dilution emulsions in 24-well plate assays.
(§4) Meloidogyne incognita and javanica were prepared from tomato roots. The roots were bleached and the debris was separated from the J2 larvae and eggs by filtration followed by sucrose density gradient centrifugation. Eggs were hatched over 4 days at 15° C. and the J2 larvae were collected by passage though a filter, followed by centrifugation.
(§5) Nematodes and emulsions were incubated with shaking at room temperature for 48 hours. The contents of each well were transferred to a small spot on individual NGM plates lacking bacteria. About 24 hours after the transfer to plates, worms on and off the inoculation spot were counted as not viable or viable, respectively. Worms were considered viable if they had crawled away from the inoculation spot, or if they were moving. Worms were considered non-viable if they remained at the inoculation spot.

H. glycines = experiment: Nematicidal activity of fatty acid methyl ester emulsions, spectrum (Example 8); type: cell-based, Heterodera glycines; settings: H. glycines 2nd stage juveniles, scored at 48 hours
Protocol: as §1, §2

tomato seedlings = experiment: Phytotoxicity evaluation on tomato seedlings; type: in vivo; settings: for Phytotoxic effect on tomato seedlings: 1% emulsion; for Visible effects on tomato seedlings: 250 μl of 1% emulsion applied to stem-media interface of two-week seedlings
Protocol: Sterilized tomato seeds were germinated in magenta jars containing Gamborg's agar media. After two weeks of growth, seedlings were treated with 250 μl of 1% fatty acid methyl ester emulsion (nonanoic acid, ricinoleic acid, ricinelaidic acid, oleic acid, or a control emulsion lacking any fatty acid), applied directly to the stem-media interface. Tomato seedlings were scored at various times after application of emulsions.

C. elegans [3] = experiment: Nematicidal activity of fatty acid methyl ester emulsions, spectrum (Example 8); type: cell-based, Caenorhabditis elegans; settings: C. elegans mixed stage
Protocol: as §1, §2

M. javanica [4] = experiment: Nematicidal activity of fatty acid methyl ester emulsions against root knot nematode J2 larvae (Example 6); type: cell-based, Meloidogyne javanica; settings: 0.1% emulsion; 48 hours incubation, counted about 24 hours after transfer to plates
Protocol: as §3, §4, §5

C. elegans [5] = experiment: Nematicidal activity of single fatty acid methyl ester emulsions against Caenorhabditis elegans (Example 4); type: cell-based
Protocol: Mixed stage Caenorhabditis elegans were washed off plates seeded with OP50 bacteria using M9 solution. 250 μl of the M9 solution, which contained about 50 worms, was pipetted into each well of a 24-well plate.
as §3
To each well, fatty acid emulsions or control emulsions were added and rapidly mixed by swirling. Nematode viability was scored by visual observation and motility assays at various time points 24 hours following addition of emulsions or controls. The fatty acid emulsions tested were methyl esters of nonanoic (pelargonic) acid, ricinoleic acid, vernolic acid, linoleic acid, oleic acid, and control emulsions lacking fatty acids.

[6] = tested on: root knot nematodes (Meloidogyne spp.); experiment: Nematicidal activity against root knot nematodes, summary statement; type: cell-based; settings: concentration of 0.1%
Protocol: as §4, §5

C. elegans [7] = experiment: Nematicidal activity of emulsions made with Tween-20 (replacing Igepal CO 630) against C. elegans; type: cell-based, Caenorhabditis elegans; settings: Tween-20 emulsion
Protocol: Some nematodes assayed as described in Example 9 lacked tolerance to emulsions made with the surfactant Igepal CO 630. For this reason some assays were repeated with Tween-20-based emulsions.
as §3, with “Briefly,” for “Fatty acid methyl ester emulsions were prepared following the teachings of Kim et al (U.S. Pat. No. 5,698,592). Briefly,”, “Tween-20” for “Igepal CO 630”, “Tween-20,” for “Igepal CO 630,”

M. javanica [8] = experiment: Nematicidal activity of fatty acid methyl ester emulsions, spectrum (Example 8); type: cell-based, Meloidogyne javanica; settings: M. javanica 2nd stage juveniles, scored at 48 hours
Protocol: as §1, §2

B. malayi = experiment: Nematicidal activity of tween-based emulsions against microfilarial nematodes; type: cell-based, Brugia malayi
Protocol: To each well, tween-based fatty acid emulsions were added and rapidly mixed by swirling. Nematode microfilaria viability was scored by visual observation of motility at 24 and 48 hours following addition of emulsions. The fatty acid emulsions tested were methyl esters of ricinoleic acid, vernolic acid, ricinelaidic acid, oleic acid, and control emulsions lacking fatty acids. The results of this study are presented in Table 7 as the percentage of non-motile microfilaria 24 hours after inoculation and in Table 8 as the percentage of non-motile microfilaria 48 hours after inoculation

[9] = tested on: free-living, animal parasitic, and plant parasitic nematodes; experiment: Nematicidal activity across the spectrum of nematodes, summary statement (Example 8); type: cell-based
Protocol: as §1, §2

P. trichosuri = experiment: Nematicidal activity of fatty acid methyl ester emulsions, spectrum (Example 8); type: cell-based, Parastrongyloides trichosuri; settings: P. trichosuri infective 3rd stage larva
Protocol: as §1, §2

[10] = 24 hrs post-inoculation, 0.0008%
[11] = 24 hrs post-inoculation, 0.0016%
[12] = 24 hrs post-inoculation, 0.003%
[13] = 24 hrs post-inoculation, 0.005%
[14] = 24 hrs post-inoculation, 0.0067%
[15] = 24 hrs post-inoculation, 0.008%
[16] = 48 hrs post-inoculation, 0.0008%
[17] = 48 hrs post-inoculation, 0.0016%
[18] = 48 hrs post-inoculation, 0.003%
[19] = 48 hrs post-inoculation, 0.005%
[20] = 48 hrs post-inoculation, 0.0067%
[21] = 48 hrs post-inoculation, 0.008%

Compound: CCCCCCCCC(=O)OC [Nonanoic (C9-methyl ester), pelargonic acid methyl ester, reference compound]
- % Worm Death (24 hr) (M. incognita [1]; 0.1% solution): 100%
- % Worm Death (24 hr) (P. scribneri; 0.01% solution): <20%
- % Worm Death (24 hr) (P. scribneri; 0.1% solution): <20%
- M. incognita (% not viable) (M. incognita [2]): 100%
- % Worm Death (24 hr) (H. glycines; 0.01% solution): >95%
- % Worm Death (24 hr) (H. glycines; 0.1% solution): 100%
- Phytotoxic effect on tomato seedlings (tomato seedlings; within 18 hours of application): distinct loss of turgor pressure (wilting phenotype)
- Phytotoxic effect on tomato seedlings (tomato seedlings; within 24 hours): almost entirely bleached to a pale white color and had nearly totally collapsed
- Visible effects on tomato seedlings (tomato seedlings): showed obvious effects on the tomatoes
- % Worm Death (24 hr) (C. elegans [3]; 0.001% solution): 30%
- % Worm Death (24 hr) (C. elegans [3]; 0.01% solution): 100%
- % Worm Death (24 hr) (C. elegans [3]; 0.1% solution): 100%
- M. javanica (% not viable) (M. javanica [4]): 100%
- Percentage of Worm Death (C. elegans [5]; 0.003% emulsion, 1 hr): 50%
- Percentage of Worm Death (C. elegans [5]; 0.003% emulsion, 6 hr): 50%
- Percentage of Worm Death (C. elegans [5]; 0.003% emulsion, 24 hr): 50%
- Percentage of Worm Death (C. elegans [5]; 0.1% emulsion, 1 hr): 100%
- Percentage of Worm Death (C. elegans [5]; 0.1% emulsion, 6 hr): 100%
- Percentage of Worm Death (C. elegans [5]; 0.1% emulsion, 24 hr): 100%
- Nematicidal activity (in words) (C. elegans [5]; concentration of 0.1%): strongly nematicidal
- Onset of effect on nematode movement (in words) (C. elegans [5]; emulsion, C. elegans): almost immediate cessation of nematode movement and subsequent death
- Nematicidal activity (in words) [6]: significant nematicidal activity
- % Worm Death (24 hr) (C. elegans [7]; 0.001% solution): 30%
- % Worm Death (24 hr) (C. elegans [7]; 0.01% solution): 100%
- % Worm Death (24 hr) (C. elegans [7]; 0.1% solution): 100%
- % Worm Death (48 hr) (M. javanica [8]; 0.1% solution): 100%

Compound: CCCCCCC(O)C/C=C/CCCCCCCC(=O)OC (stereo not drawn) [Ricinelaidic, 12-hydroxy-trans-9-octadecenoic acid methyl ester]
- % Worm Death (24 hr) (M. incognita [1]; 0.001% solution): 97%
- % Worm Death (24 hr) (M. incognita [1]; 0.01% solution): ˜99%
- % Worm Death (24 hr) (M. incognita [1]; 0.1% solution): ˜99%
- % Worm Death (24 hr) (P. scribneri; 0.01% solution): ˜40%
- % Worm Death (24 hr) (P. scribneri; 0.1% solution): ˜70%
- percentage of non-motile microfilaria (B. malayi; [10]): 0%
- percentage of non-motile microfilaria (B. malayi; [11]): 19.1%
- percentage of non-motile microfilaria (B. malayi; [12]): 100%
- percentage of non-motile microfilaria (B. malayi; [13]): 100%
- percentage of non-motile microfilaria (B. malayi; [14]): 100%
- percentage of non-motile microfilaria (B. malayi; [15]): 100%
- percentage of non-motile microfilaria (B. malayi; [16]): 0%
- percentage of non-motile microfilaria (B. malayi; [17]): 49.4%
- percentage of non-motile microfilaria (B. malayi; [18]): 100%
- percentage of non-motile microfilaria (B. malayi; [19]): 100%
- percentage of non-motile microfilaria (B. malayi; [20]): 100%
- percentage of non-motile microfilaria (B. malayi; [21]): 100%
- Microfilarialcidal activity (in words) (B. malayi; tween-based emulsions): strong microfilarialcidal activity
- % Worm Death (24 hr) (H. glycines; 0.001% solution): 100%
- % Worm Death (24 hr) (H. glycines; 0.01% solution): 100%
- % Worm Death (24 hr) (H. glycines; 0.1% solution): 100%
- Visible effects on tomato seedlings (tomato seedlings): none of the tomatoes treated with the other fatty acid methyl ester emulsions showed visible effects
- % Worm Death (24 hr) (C. elegans [3]; 0.001% solution): 75%
- % Worm Death (24 hr) (C. elegans [3]; 0.01% solution): 100%
- % Worm Death (24 hr) (C. elegans [3]; 0.1% solution): 100%
- % Worm Death (24 hr) (C. elegans [7]; 0.001% solution): 60%
- % Worm Death (24 hr) (C. elegans [7]; 0.01% solution): 100%
- % Worm Death (24 hr) (C. elegans [7]; 0.1% solution): 100%
- Breadth of nematicidal activity (in words) [9]: favorable nematicidal activity against a wide spectrum of divergent nematode genera
- Nematicidal activity (in words) ([9]; concentrations of 0.1% and 0.01%): strongly nematicidal
- % Worm Death (48 hr) (M. javanica [8]; 0.001% solution): ˜60%
- % Worm Death (48 hr) (M. javanica [8]; 0.01% solution): 100%
- % Worm Death (48 hr) (M. javanica [8]; 0.1% solution): 100%
- % Worm Death (24 hr) (P. trichosuri; 0.01% solution): 100%
- % Worm Death (24 hr) (P. trichosuri; 0.1% solution): 100%

Compound: CCCCC[C@H]1O[C@H]1C/C=C\CCCCCCCC(=O)OC [Vernolic Acid (C18-methyl ester), (12,13)-epoxy-cis-9-octadecenoic acid methyl ester]
- % Worm Death (24 hr) (M. incognita [1]; 0.01% solution): 73%
- % Worm Death (24 hr) (M. incognita [1]; 0.1% solution): 98%
- % Worm Death (24 hr) (P. scribneri; 0.01% solution): <20%
- % Worm Death (24 hr) (P. scribneri; 0.1% solution): <20%
- M. incognita (% not viable) (M. incognita [2]): 100%
- percentage of non-motile microfilaria (B. malayi; [10]): 0%
- percentage of non-motile microfilaria (B. malayi; [11]): 0%
- percentage of non-motile microfilaria (B. malayi; [12]): 0%
- percentage of non-motile microfilaria (B. malayi; [13]): 66%
- percentage of non-motile microfilaria (B. malayi; [14]): 100%
- percentage of non-motile microfilaria (B. malayi; [15]): 100%
- percentage of non-motile microfilaria (B. malayi; [16]): 0%
- percentage of non-motile microfilaria (B. malayi; [17]): 0%
- percentage of non-motile microfilaria (B. malayi; [18]): 5%
- percentage of non-motile microfilaria (B. malayi; [19]): 100%
- percentage of non-motile microfilaria (B. malayi; [20]): 100%
- percentage of non-motile microfilaria (B. malayi; [21]): 100%
- % Worm Death (24 hr) (H. glycines; 0.001% solution): 18%
- % Worm Death (24 hr) (H. glycines; 0.01% solution): 20%
- % Worm Death (24 hr) (H. glycines; 0.1% solution): 30%
- % Worm Death (24 hr) (C. elegans [3]; 0.001% solution): 30%
- % Worm Death (24 hr) (C. elegans [3]; 0.01% solution): 50%
- % Worm Death (24 hr) (C. elegans [3]; 0.1% solution): 80%
- M. javanica (% not viable) (M. javanica [4]): 90%
- Percentage of Worm Death (C. elegans [5]; 0.003% emulsion, 1 hr): 20%
- Percentage of Worm Death (C. elegans [5]; 0.003% emulsion, 6 hr): 20%
- Percentage of Worm Death (C. elegans [5]; 0.003% emulsion, 24 hr): 20%
- Percentage of Worm Death (C. elegans [5]; 0.1% emulsion, 1 hr): 65%
- Percentage of Worm Death (C. elegans [5]; 0.1% emulsion, 6 hr): 65%
- Percentage of Worm Death (C. elegans [5]; 0.1% emulsion, 24 hr): 75%
- Nematicidal activity (in words) [6]: significant nematicidal activity
- % Worm Death (48 hr) (M. javanica [8]; 0.01% solution): 60%
- % Worm Death (48 hr) (M. javanica [8]; 0.1% solution): 90%
- % Worm Death (24 hr) (P. trichosuri; 0.01% solution): ˜90%
- % Worm Death (24 hr) (P. trichosuri; 0.1% solution): ˜95%
